Results from US12565475B2, “Small molecule compound inhibiting signal transmission path of TLR7 and TLR9 and use thereof” (AJOU UNIVERSITY INDUSTRY-ACADEMIC COOPERATION FOUNDATION, priority 2019, dated 2026).

Target: T1, TLR4 (Mus musculus, UniProt Q9QUK6)
T1 construct: endogenous in cells; host or cells: RAW 264.7
T1 sequence (Q9QUK6 26-835): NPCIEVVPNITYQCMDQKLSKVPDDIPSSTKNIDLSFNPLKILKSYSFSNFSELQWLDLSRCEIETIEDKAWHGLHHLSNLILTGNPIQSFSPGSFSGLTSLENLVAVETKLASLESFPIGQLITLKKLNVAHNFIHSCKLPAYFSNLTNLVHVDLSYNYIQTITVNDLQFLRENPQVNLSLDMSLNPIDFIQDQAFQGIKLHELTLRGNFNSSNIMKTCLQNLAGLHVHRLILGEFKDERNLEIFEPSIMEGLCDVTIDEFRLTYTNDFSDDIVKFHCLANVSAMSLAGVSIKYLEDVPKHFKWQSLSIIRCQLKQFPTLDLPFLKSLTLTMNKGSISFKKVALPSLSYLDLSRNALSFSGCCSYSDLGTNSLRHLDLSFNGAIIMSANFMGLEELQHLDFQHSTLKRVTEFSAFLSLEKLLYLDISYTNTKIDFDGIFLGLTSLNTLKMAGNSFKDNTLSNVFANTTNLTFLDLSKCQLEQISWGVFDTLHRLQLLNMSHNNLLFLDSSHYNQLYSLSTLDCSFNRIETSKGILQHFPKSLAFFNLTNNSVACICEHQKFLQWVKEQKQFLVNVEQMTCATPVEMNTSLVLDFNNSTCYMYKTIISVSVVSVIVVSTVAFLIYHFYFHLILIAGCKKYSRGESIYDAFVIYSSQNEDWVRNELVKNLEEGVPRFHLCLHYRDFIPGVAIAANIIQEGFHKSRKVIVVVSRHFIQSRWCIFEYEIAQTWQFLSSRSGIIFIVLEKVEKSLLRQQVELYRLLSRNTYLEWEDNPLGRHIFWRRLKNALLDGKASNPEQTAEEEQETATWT
T1 sequence (Q9JHF9 19-160 partner): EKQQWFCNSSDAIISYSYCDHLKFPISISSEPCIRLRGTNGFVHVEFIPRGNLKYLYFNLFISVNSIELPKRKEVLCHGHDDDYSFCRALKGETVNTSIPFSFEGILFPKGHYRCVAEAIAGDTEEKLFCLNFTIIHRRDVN
Test: TLR4-mediated TNF-α secretion (LPS), ELISA
Assay type: cell-based, murine
Settings: RAW 264.7, 10 or 20 μM
Procedure: Agonists specific to TLR1/TLR2 (Pam3CSK4), TLR2/TLR6 (FSL-1), TLR3 (Poly I:C), TLR7 (imiquimod), and TLR8 (TL8-506) were purchased from InvivoGen Ltd. (Hong-Kong, China), and a TLR4-specific agonist (LPS from E. coli O111:B4) was purchased from Sigma-Aldrich, Inc. For TLR9-specific stimulation, class C CpG-ODN (ODN2395, 5′-TCGTCGTTTTCGGCGCGCGCCG-3′) having full phosphorothioate backbone modification was synthesized (Bioneer, Inc., Daejeon, Korea). All TLR agonists were dissolved in deionized water and applied to a culture media for TLR activation. The cells were treated with test compounds or a control medium for 1 hour, and then stimulated with a TLR agonist for 4 hours, or 24 hours in the case of poly(I:C), and the cytokine secretion was monitored.
RAW 264.7 or differentiated THP-1 cell lines were seeded onto a 96-well culture plate at a density of 2×10^4 cells/well. The cells were treated with test compounds for 1 hour followed by the stimulation with TLR agonists for 4 hours. The supernatant was transferred to pre-coated assay plates, and the secretion levels of mouse and human TNF-α were measured by respective ELISA kits (Invitrogen, Carlsbad, CA, USA). […] Absorbance was measured by a microplate reader spectrophotometer (Molecular Devices, Inc., San Jose, CA, USA), and data was interpolated from a standard curve using SoftMax Pro 5.3 software (Molecular Devices, Inc.). […]

Structure (SMILES): COc1ccc(CNc2ncc(-c3ccc4c(c3)OCO4)n2C)c(OC)c1 [TIC10-7, 5-(2H-1,3-benzodioxol-5-yl)-N-[(2,4-dimethoxyphenyl)methyl]-1-methyl-1H-imidazol-2-amine]
- effect on TLR4-mediated cytokine (TNF-α) production: no effect
